Earlier results as cited in patent US6458389B1 (priority 1997, dated 2002).
Where two headings read alike, the source gives them in different places.

Columns and labels:
mice = mice treated orally, toxic dose of 70 mg/kg
rats = details: rat, in vivo, iv

**Q.** Which results are given for N.N.[Cl][Pt][Cl] [cisplatin]?
**A.** Electron microscope analysis of tissues (kidneys) (48 hours after oral administration): only slight changes in the kidneys; Electron microscope analysis of tissues (kidneys) (intravenous administration): symptoms of nephrotoxicity are observable; Histopathological change in the kidneys (mice): No histopathological change in the kidneys; Urea concentrations in the blood, multiplication factor (rats): 14
